#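 Method: 48-hour compound exposure of cells in 96-well plates, five concentrations, linear interpolation of endpoints. Abbreviation: GI50, concentration required for 50% inhibition of growth. The concentration for full growth arrest is given as TGI.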
# How the values were obtained:
# Test in all cases: growth of human tumour cells (NCI), 48 h
# MALME-3M melanoma = test system: MALME-3M melanoma
# A498 renal = test system: A498 renal
# SF-295 CNS = test system: SF-295 CNS
# MCF7 breast = test system: MCF7 breast
# RXF 393 renal = test system: RXF 393 renal
# SNB-75 CNS = test system: SNB-75 CNS
# HCT-15 colon = test system: HCT-15 colon
# A549 NSCLC = test system: A549 NSCLC
# TK-10 renal = test system: TK-10 renal
# KM12 colon = test system: KM12 colon
# 786-0 renal = test system: 786-0 renal
# COLO 205 colon = test system: COLO 205 colon
# SNB-19 CNS = test system: SNB-19 CNS
# K-562 leukemia = test system: K-562 leukemia
# ACHN renal = test system: ACHN renal
# BT-549 breast = test system: BT-549 breast
# SR leukemia = test system: SR leukemia
# HL-60(TB) leukemia = test system: HL-60(TB) leukemia
# OVCAR-4 ovarian = test system: OVCAR-4 ovarian
# OVCAR-5 ovarian = test system: OVCAR-5 ovarian
# UO-31 renal = test system: UO-31 renal
# CCRF-CEM leukemia = test system: CCRF-CEM leukemia
# HOP-62 NSCLC = test system: HOP-62 NSCLC
# NCI-H522 lung = test system: NCI-H522 lung
# NCI-H226 lung = test system: NCI-H226 lung
# MDA-MB-231 breast = test system: MDA-MB-231 breast
# PC-3 prostate = test system: PC-3 prostate
# SW-620 colon = test system: SW-620 colon
# NCI-H23 lung = test system: NCI-H23 lung
# RPMI-8226 leukemia = test system: RPMI-8226 leukemia
# SK-MEL-28 melanoma = test system: SK-MEL-28 melanoma
# UACC-62 melanoma = test system: UACC-62 melanoma
# NCI-H460 lung = test system: NCI-H460 lung
# OVCAR-8 ovarian = test system: OVCAR-8 ovarian
# SK-MEL-2 melanoma = test system: SK-MEL-2 melanoma
# SF-268 CNS = test system: SF-268 CNS
# T-47D breast = test system: T-47D breast
# IGROV1 ovarian = test system: IGROV1 ovarian
# MDA-MB-435 = test system: MDA-MB-435
# HS 578T breast = test system: HS 578T breast
# HOP-92 NSCLC = test system: HOP-92 NSCLC
# DU-145 prostate = test system: DU-145 prostate
# EKVX NSCLC = test system: EKVX NSCLC
# SF-539 CNS = test system: SF-539 CNS
# OVCAR-3 ovarian = test system: OVCAR-3 ovarian
# SK-MEL-5 melanoma = test system: SK-MEL-5 melanoma
# UACC-257 melanoma = test system: UACC-257 melanoma
# HCT-116 colon = test system: HCT-116 colon
# M14 melanoma = test system: M14 melanoma
# CAKI-1 renal = test system: CAKI-1 renal
# LOX IMVI melanoma = test system: LOX IMVI melanoma
# NCI/ADR-RES ovarian = test system: NCI/ADR-RES ovarian
# HT29 colon = test system: HT29 colon
# SN12C renal = test system: SN12C renal
# MOLT-4 leukemia = test system: MOLT-4 leukemia
# SK-OV-3 ovarian = test system: SK-OV-3 ovarian
# HCC-2998 colon = test system: HCC-2998 colon
# U251 CNS = test system: U251 CNS
smiles,measurement,setting,value
C1=C\CCCCN2CC[C@H]3[C@H](CCCC/C=C\CCCN4C[C@@H](CCCCC/1)C[C@@H]3C4)C2,GI50,MALME-3M melanoma,2.13 µM
same,TGI,MALME-3M melanoma,5.43 µM
same,GI50,A498 renal,6.31 µM
same,TGI,A498 renal,21.4 µM
same,GI50,SF-295 CNS,5.3 µM
same,TGI,SF-295 CNS,12.1 µM
same,GI50,MCF7 breast,3.58 µM
same,TGI,MCF7 breast,15.1 µM
same,GI50,RXF 393 renal,2.72 µM
same,TGI,RXF 393 renal,8.17 µM
same,GI50,SNB-75 CNS,3.99 µM
same,TGI,SNB-75 CNS,18.9 µM
same,GI50,HCT-15 colon,2.22 µM
same,TGI,HCT-15 colon,7.77 µM
same,GI50,A549 NSCLC,12.1 µM
same,TGI,A549 NSCLC,26.8 µM
same,GI50,TK-10 renal,2.98 µM
same,TGI,TK-10 renal,12.4 µM
same,GI50,KM12 colon,9.05 µM
same,TGI,KM12 colon,21.5 µM
same,GI50,786-0 renal,12.5 µM
same,TGI,786-0 renal,25.9 µM
same,GI50,COLO 205 colon,2.25 µM
same,TGI,COLO 205 colon,5.75 µM
same,GI50,SNB-19 CNS,16.4 µM
same,TGI,SNB-19 CNS,30.5 µM
same,GI50,K-562 leukemia,2.37 µM
same,GI50,ACHN renal,2.8 µM
same,TGI,ACHN renal,10.5 µM
same,GI50,BT-549 breast,13.4 µM
same,TGI,BT-549 breast,27.3 µM
same,GI50,SR leukemia,1.85 µM
same,TGI,SR leukemia,4.93 µM
same,GI50,HL-60(TB) leukemia,2.77 µM
same,TGI,HL-60(TB) leukemia,10.8 µM
same,GI50,OVCAR-4 ovarian,8.84 µM
same,TGI,OVCAR-4 ovarian,27.5 µM
same,GI50,OVCAR-5 ovarian,12.5 µM
same,TGI,OVCAR-5 ovarian,25.5 µM
same,GI50,UO-31 renal,4.35 µM
same,TGI,UO-31 renal,10.5 µM
same,GI50,CCRF-CEM leukemia,3.64 µM
same,TGI,CCRF-CEM leukemia,> 22.6 µM
same,GI50,HOP-62 NSCLC,15.7 µM
same,TGI,HOP-62 NSCLC,29.8 µM
same,GI50,NCI-H522 lung,12.6 µM
same,TGI,NCI-H522 lung,28.5 µM
same,GI50,NCI-H226 lung,13.5 µM
same,TGI,NCI-H226 lung,27.7 µM
same,GI50,MDA-MB-231 breast,6.03 µM
same,TGI,MDA-MB-231 breast,19.1 µM
same,GI50,PC-3 prostate,14 µM
same,TGI,PC-3 prostate,36.6 µM
same,GI50,SW-620 colon,6.96 µM
same,TGI,SW-620 colon,19.4 µM
same,GI50,NCI-H23 lung,14.3 µM
same,TGI,NCI-H23 lung,30.2 µM
same,GI50,RPMI-8226 leukemia,2.06 µM
same,TGI,RPMI-8226 leukemia,6.16 µM
same,GI50,SK-MEL-28 melanoma,1.82 µM
same,TGI,SK-MEL-28 melanoma,3.35 µM
same,GI50,UACC-62 melanoma,13.2 µM
same,TGI,UACC-62 melanoma,25.9 µM
same,GI50,NCI-H460 lung,5.58 µM
same,TGI,NCI-H460 lung,18.1 µM
same,GI50,OVCAR-8 ovarian,10.8 µM
same,TGI,OVCAR-8 ovarian,25.3 µM
same,GI50,SK-MEL-2 melanoma,10.4 µM
same,TGI,SK-MEL-2 melanoma,26.3 µM
same,GI50,SF-268 CNS,13.6 µM
same,TGI,SF-268 CNS,26.8 µM
same,GI50,T-47D breast,10 µM
same,TGI,T-47D breast,27.4 µM
same,GI50,IGROV1 ovarian,9.27 µM
same,TGI,IGROV1 ovarian,23.1 µM
same,GI50,MDA-MB-435,1.73 µM
same,TGI,MDA-MB-435,3.26 µM
same,GI50,HS 578T breast,5.22 µM
same,TGI,HS 578T breast,15.4 µM
same,GI50,HOP-92 NSCLC,4.04 µM
same,TGI,HOP-92 NSCLC,20.1 µM
same,GI50,DU-145 prostate,11.7 µM
same,TGI,DU-145 prostate,23.9 µM
same,GI50,EKVX NSCLC,11.8 µM
same,TGI,EKVX NSCLC,25 µM
same,GI50,SF-539 CNS,3.24 µM
same,TGI,SF-539 CNS,11.5 µM
same,GI50,OVCAR-3 ovarian,10.8 µM
same,TGI,OVCAR-3 ovarian,23.3 µM
same,GI50,SK-MEL-5 melanoma,4.75 µM
same,TGI,SK-MEL-5 melanoma,16.7 µM
same,GI50,UACC-257 melanoma,1.74 µM
same,TGI,UACC-257 melanoma,3.5 µM
same,GI50,HCT-116 colon,4.33 µM
same,TGI,HCT-116 colon,20.8 µM
same,GI50,M14 melanoma,1.77 µM
same,TGI,M14 melanoma,3.44 µM
same,GI50,CAKI-1 renal,5.13 µM
same,TGI,CAKI-1 renal,14.1 µM
same,GI50,LOX IMVI melanoma,4.3 µM
same,TGI,LOX IMVI melanoma,14.8 µM
same,GI50,NCI/ADR-RES ovarian,13.8 µM
same,TGI,NCI/ADR-RES ovarian,28.8 µM
same,GI50,HT29 colon,3.28 µM
same,TGI,HT29 colon,12.9 µM
same,GI50,SN12C renal,11.6 µM
same,TGI,SN12C renal,23.9 µM
same,GI50,MOLT-4 leukemia,3.67 µM
same,TGI,MOLT-4 leukemia,17.4 µM
same,GI50,SK-OV-3 ovarian,13.3 µM
same,TGI,SK-OV-3 ovarian,26.2 µM
same,GI50,HCC-2998 colon,2.58 µM
same,TGI,HCC-2998 colon,7.6 µM
same,GI50,U251 CNS,4.25 µM
same,TGI,U251 CNS,16.5 µM

# Reference: PubChem BioAssay (NCI)
